Experiments:
Assay in all cases: relative viability (nuclei count vs DMSO), 5 days (fraction); higher = more cells survive
NCI-H2023 = test system: NCI-H2023
Outline: (§1)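 Dosing by pin tool came one day after lung cancer cell lines were seeded in 1536-well plates, using either one drug or a fixed anchor-drug dose plus five library-drug doses (not always all listed) in √10 steps. After 5 days, nuclei were counted on 4× images. Relative viability is treated-well nuclei count divided by vehicle-well nuclei count, and values are medians of duplicate plates.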

H3255 = test system: H3255
Outline: as §1

SK-LU-1 = test system: SK-LU-1
Outline: as §1

LXF-289 = test system: LXF-289
Outline: as §1

NCI-H2342 = test system: NCI-H2342
Outline: as §1

EMC-BAC-2 = test system: EMC-BAC-2
Outline: as §1

HOP-62 = test system: HOP-62
Outline: as §1

EPLC-272H = test system: EPLC-272H
Outline: as §1

NCI-H1993 = test system: NCI-H1993
Outline: as §1

NCI-H647 = test system: NCI-H647
Outline: as §1

SW 1573 = test system: SW 1573
Outline: as §1

PC-14 = test system: PC-14
Outline: as §1

NCI-H1650 = test system: NCI-H1650
Outline: as §1

NCI-H727 = test system: NCI-H727
Outline: as §1

NCI-H2126 = test system: NCI-H2126
Outline: as §1

LCLC-97TM1 = test system: LCLC-97TM1
Outline: as §1

NCI-H2347 = test system: NCI-H2347
Outline: as §1

NCI-H2009 = test system: NCI-H2009
Outline: as §1

NCI-H661 = test system: NCI-H661
Outline: as §1

NCI-H2085 = test system: NCI-H2085
Outline: as §1

NCI-H322M = test system: NCI-H322M
Outline: as §1

NCI-H1915 = test system: NCI-H1915
Outline: as §1

For CC1(C)CCC(c2ccc(Cl)cc2)=C(CN2CCN(c3ccc(C(=O)NS(=O)(=O)c4ccc(N[C@H](CCN5CCOCC5)CSc5ccccc5)c(S(=O)(=O)C(F)(F)F)c4)cc3)CC2)C1 [Navitoclax] + Nc1ncn([C@H]2C[C@H](O)[C@@H](CO)O2)c(=O)n1 [Decitabine] (partner 2 µM), the relative viability (NCI-H2023; first compound 0.005 µM) was 0.22, the relative viability (NCI-H2023; first compound 0.01581 µM) was 0.248 and the relative viability (NCI-H2023; first compound 0.05 µM) was 0.188. For the same molecule, the relative viability (NCI-H2023; first compound 0.1581 µM) was 0.191, the relative viability (NCI-H2023; first compound 0.5 µM) was 0.229 and the relative viability (H3255; first compound 0.005 µM) was 0.503. The relative viability (H3255; first compound 0.01581 µM) was 0.668, the relative viability (H3255; first compound 0.05 µM) was 0.567 and the relative viability (H3255; first compound 0.1581 µM) was 0.596. It also gave a relative viability (H3255; first compound 0.5 µM) of 0.519, a relative viability (SK-LU-1; first compound 0.005 µM) of 0.577 and a relative viability (SK-LU-1; first compound 0.01581 µM) of 0.577. The relative viability (SK-LU-1; first compound 0.05 µM) was 0.389, the relative viability (SK-LU-1; first compound 0.1581 µM) was 0.609 and the relative viability (SK-LU-1; first compound 0.5 µM) was 0.469. The relative viability (LXF-289; first compound 0.005 µM) was 0.347, the relative viability (LXF-289; first compound 0.01581 µM) was 0.389 and the relative viability (LXF-289; first compound 0.05 µM) was 0.349. The relative viability (LXF-289; first compound 0.1581 µM) was 0.349, the relative viability (LXF-289; first compound 0.5 µM) was 0.428 and the relative viability (NCI-H2342; first compound 0.005 µM) was 0.799. The relative viability (NCI-H2342; first compound 0.01581 µM) was 0.764, the relative viability (NCI-H2342; first compound 0.05 µM) was 0.653 and the relative viability (NCI-H2342; first compound 0.1581 µM) was 0.679. It also gave a relative viability (NCI-H2342; first compound 0.5 µM) of 0.713, a relative viability (EMC-BAC-2; first compound 0.005 µM) of 0.943 and a relative viability (EMC-BAC-2; first compound 0.01581 µM) of 1.03. The relative viability (EMC-BAC-2; first compound 0.05 µM) was 0.963, the relative viability (EMC-BAC-2; first compound 0.1581 µM) was 0.915 and the relative viability (EMC-BAC-2; first compound 0.5 µM) was 0.911. The relative viability (HOP-62; first compound 0.005 µM) was 0.22, the relative viability (HOP-62; first compound 0.01581 µM) was 0.21 and the relative viability (HOP-62; first compound 0.05 µM) was 0.173. The relative viability (HOP-62; first compound 0.1581 µM) was 0.191, the relative viability (HOP-62; first compound 0.5 µM) was 0.205 and the relative viability (EPLC-272H; first compound 0.005 µM) was 0.346. It also gave a relative viability (EPLC-272H; first compound 0.05 µM) of 0.377, a relative viability (EPLC-272H; first compound 0.1581 µM) of 0.302 and a relative viability (EPLC-272H; first compound 0.5 µM) of 0.38. The relative viability (NCI-H1993; first compound 0.005 µM) was 0.659, the relative viability (NCI-H1993; first compound 0.01581 µM) was 0.751 and the relative viability (NCI-H1993; first compound 0.05 µM) was 0.62. It also gave a relative viability (NCI-H1993; first compound 0.1581 µM) of 0.56, a relative viability (NCI-H1993; first compound 0.5 µM) of 0.596 and a relative viability (NCI-H647; first compound 0.005 µM) of 0.403. It also gave a relative viability (NCI-H647; first compound 0.01581 µM) of 0.413, a relative viability (NCI-H647; first compound 0.05 µM) of 0.409 and a relative viability (NCI-H647; first compound 0.1581 µM) of 0.275. The relative viability (NCI-H647; first compound 0.5 µM) was 0.32, the relative viability (SW 1573; first compound 0.005 µM) was 0.498 and the relative viability (SW 1573; first compound 0.01581 µM) was 0.683. For the same molecule, the relative viability (SW 1573; first compound 0.05 µM) was 0.387, the relative viability (SW 1573; first compound 0.1581 µM) was 0.386 and the relative viability (SW 1573; first compound 0.5 µM) was 0.364. It also gave a relative viability (PC-14; first compound 0.005 µM) of 0.237, a relative viability (PC-14; first compound 0.01581 µM) of 0.2 and a relative viability (PC-14; first compound 0.05 µM) of 0.228. It also gave a relative viability (PC-14; first compound 0.1581 µM) of 0.211, a relative viability (PC-14; first compound 0.5 µM) of 0.19 and a relative viability (NCI-H1650; first compound 0.005 µM) of 0.43. It also gave a relative viability (NCI-H1650; first compound 0.01581 µM) of 0.424, a relative viability (NCI-H1650; first compound 0.05 µM) of 0.399 and a relative viability (NCI-H1650; first compound 0.1581 µM) of 0.364. For the same molecule, the relative viability (NCI-H1650; first compound 0.5 µM) was 0.334, the relative viability (NCI-H727; first compound 0.005 µM) was 0.903 and the relative viability (NCI-H727; first compound 0.01581 µM) was 1.08. For the same molecule, the relative viability (NCI-H727; first compound 0.05 µM) was 0.839, the relative viability (NCI-H727; first compound 0.1581 µM) was 0.786 and the relative viability (NCI-H727; first compound 0.5 µM) was 1.02. The relative viability (NCI-H2126; first compound 0.005 µM) was 0.595, the relative viability (NCI-H2126; first compound 0.01581 µM) was 0.647 and the relative viability (NCI-H2126; first compound 0.05 µM) was 0.522. It also gave a relative viability (NCI-H2126; first compound 0.1581 µM) of 0.547, a relative viability (NCI-H2126; first compound 0.5 µM) of 0.564 and a relative viability (LCLC-97TM1; first compound 0.005 µM) of 0.229. It also gave a relative viability (LCLC-97TM1; first compound 0.01581 µM) of 0.268, a relative viability (LCLC-97TM1; first compound 0.05 µM) of 0.224 and a relative viability (LCLC-97TM1; first compound 0.1581 µM) of 0.217. It also gave a relative viability (LCLC-97TM1; first compound 0.5 µM) of 0.271, a relative viability (NCI-H2347; first compound 0.005 µM) of 0.668 and a relative viability (NCI-H2347; first compound 0.01581 µM) of 0.551. For the same molecule, the relative viability (NCI-H2347; first compound 0.05 µM) was 0.574, the relative viability (NCI-H2347; first compound 0.1581 µM) was 0.654 and the relative viability (NCI-H2347; first compound 0.5 µM) was 0.582. The relative viability (NCI-H2009; first compound 0.005 µM) was 0.412, the relative viability (NCI-H2009; first compound 0.01581 µM) was 0.441 and the relative viability (NCI-H2009; first compound 0.05 µM) was 0.382. The relative viability (NCI-H2009; first compound 0.1581 µM) was 0.342, the relative viability (NCI-H2009; first compound 0.5 µM) was 0.295 and the relative viability (NCI-H661; first compound 0.005 µM) was 0.556. For the same molecule, the relative viability (NCI-H661; first compound 0.01581 µM) was 0.595, the relative viability (NCI-H661; first compound 0.05 µM) was 0.545 and the relative viability (NCI-H661; first compound 0.1581 µM) was 0.547. It also gave a relative viability (NCI-H661; first compound 0.5 µM) of 0.567, a relative viability (NCI-H2085; first compound 0.005 µM) of 0.612 and a relative viability (NCI-H2085; first compound 0.01581 µM) of 0.695. The relative viability (NCI-H2085; first compound 0.05 µM) was 0.474, the relative viability (NCI-H2085; first compound 0.1581 µM) was 0.579 and the relative viability (NCI-H2085; first compound 0.5 µM) was 0.562. The relative viability (NCI-H322M; first compound 0.005 µM) was 0.722, the relative viability (NCI-H322M; first compound 0.01581 µM) was 0.863 and the relative viability (NCI-H322M; first compound 0.05 µM) was 0.703. The relative viability (NCI-H322M; first compound 0.1581 µM) was 0.655, the relative viability (NCI-H322M; first compound 0.5 µM) was 0.725 and the relative viability (NCI-H1915; first compound 0.005 µM) was 0.263. It also gave a relative viability (NCI-H1915; first compound 0.01581 µM) of 0.242, a relative viability (NCI-H1915; first compound 0.05 µM) of 0.274 and a relative viability (NCI-H1915; first compound 0.1581 µM) of 0.247. The relative viability (NCI-H1915; first compound 0.5 µM) was 0.25.
